Measurements taken from ChEMBL document CHEMBL1130669, “Resveratrol as a new type of DNA-cleaving agent” (1998).

These molecules were tested on Escherichia coli (assay: Compound was tested for its ability to inhibit DNA strand scission induced by resveratrol and Cu2+, at concentration 50 mM).
Type: functional

Row | Structure (SMILES) | inhibition at 50000 µM [%]
1 | CCO [ALCOHOL] | 1.9
2 | C[S+](C)[O-] [DIMETHYL SULFOXIDE] | 2.8
3 | OC[C@@H](O)[C@@H](O)[C@H](O)[C@H](O)CO [MANNITOL] | 0.6
4 | [I-].[K+] [POTASSIUM IODIDE] | 61.5
5 | [N-]=[N+]=[N-] [SODIUM AZIDE] | 1.2
6 | NC(N)=S [THIOUREA] | 93.8

The molecules below were run on Escherichia coli (assay: Compound was tested for its ability to inhibit DNA strand scission induced by resveratrol and Cu2+, at concentration 1 mM).
Type: functional

Row | Structure (SMILES) | inhibition at 1000 µM [%]
7 | Cc1ccoc1C | 98.7
8 | O=S(=O)(O)c1cc(O)c(O)c(S(=O)(=O)O)c1 [TIRON] | 96.5
